Data reported in patent US20240425464A1, “Substituted Monohydrazides as Potent Antifungal Agents” (University of Kentucky Research Foundation, priority 2023, published 2024).
Converted amounts (≈) assume the structure as drawn. Like-named read-outs stand apart in the source and are kept apart here.

Experiments:
[1] = test system: A. fumigatus NRRL 5109 (R); assay: MIC determination by in vitro antifungal assay; format: cell-based, Aspergillus fumigatus; conditions: strain R = A. fumigatus NRRL 5109
Method: (§1) 10 mg/mL stock solutions of compounds 1a-9j were prepared in dimethyl sulfoxide (DMSO) and were stored at −20° C. in the dark. The antifungal agent amphotericin B (AmB) was purchased from VWR (Radnor PA, USA). AmB was dissolved in DMSO at a final concentration of 5 mg/mL and was stored at −20° C., protected from light. Candida albicans American Type Culture Collection (ATCC) 10231 (strain A), C. albicans ATCC 64124 (B), and C. albicans ATCC MYA-2876 (C) were obtained from Utah State University. C. albicans ATCC 90819 (D), C. albicans ATCC MYA-2310 (E), C. albicans ATCC MYA-1237 (F), C. albicans ATCC MYA-1003 (G), Candida glabrata ATCC 2001 (H), Candida krusei ATCC 6258 (I), Candida parapsilosis ATCC 22019 (J), Cryptococcus neoformans ATCC MYA-895 (M), Aspergillus terreus ATCC MYA-3633 (N), and Aspergillus flavus ATCC MYA-3631 (0) were obtained from the American Type Culture Collection (ATCC; Manassas, VA, USA). Aspergillus nidulans ATCC 38163 (P) was obtained from University of Kentucky. Clinically derived Aspergillus fumigatus NRRL 163 (Q), A. fumigatus NRRL 5109 (R), and A. fumigatus NRRL 6113 (S) were obtained from Northern Regional Research Laboratory (NRRL). Candida auris 384 (K), C. auris 390 (L), and fungal strains 381-400 (including 10 C. auris (AR Bank #381-390), 3 Candida duobushaemulonii (AR Bank #391, AR Bank #392, and AR Bank #394), 2 Candida haemulonii (AR Bank #393 and AR Bank #395), 1 Kodameae ohmeri (AR Bank #396), 1 C. krusei (AR Bank #397), 1 Candida lusitaniae (AR Bank #398), and 2 Saccharomyces cerevisiae strains (AR Bank #399 and AR Bank #400)) were part of a larger fungal library from the AR Bank maintained by the Centers for Disease Control and Prevention (CDC; Atlanta, GA, USA). Filamentous fungi and yeasts were cultivated at 35° C. in RPMI 1640 medium (with L-glutamine, without sodium bicarbonate, Sigma-Aldrich, St. Louis, MO) buffered to a pH of 7.0 with 0.165 M morpholinepropanesulfonic acid (MOPS) buffer (Sigma-Aldrich). For cytotoxicity assays, HepG2 and the mouse macrophage cell line J774A.1 were obtained from University of Kentucky. The human embryonic kidney cell line, HEK-293, was bought from the ATCC. Mammalian cells were grown in Dulbecco's Modified Eagle's Medium (DMEM) (from VWR) with 10% fetal bovine serum (FBS) (from VWR) and 1% Pen/Strep (from ATCC). Cell lines were cultured at 37° C. with 5% CO2 and passaged by trypsinization with 0.05% trypsin: 0.53 mM EDTA (from Sigma-Aldrich).
(§2) The MIC values of compounds 1a-9j against yeast cells (strains A-P and 381-400) were determined in 96-well plates as described in the CLSI documents M27-A3 and M38-A2 with minor modifications.^2 A single colony of freshly prepared yeast cells was used to inoculate 5 mL of yeast extract peptone dextrose (YPD) broth prior to incubation overnight with shaking at 200 rpm at 35° C. From the actively growing yeast culture, 100 µL were then transferred to 900 μL of RPMI 1640 medium and re-adjusted to achieve OD600 of 0.12 (˜1×10^6 CFU/mL). The cell suspension was further diluted to achieve 1:100 in RPMI 1640 medium. 100 μL of cells were added to the wells of a 96-well microtiter plates that contained 100 µL of the compound solution to obtain concentrations of 0.06-31.3 μg/mL of compounds 1a-9j or AmB prior to incubation for 48 h at 35° C.
(§3) Finally, the activity of these monohydrazides was explored against […] non-Candida strains: Cryptococcus neoformans ATCC MYA-895 (M), Aspergillus terreus ATCC MYA-3633 (N), Aspergillus flavus ATCC MYA-3631 (O), Aspergillus nidulans ATCC 38163 (P), Aspergillus fumigatus NRRL 163 (Q), A. fumigatus NRRL 5109 (R), and A. fumigatus NRRL 6113 (S) (Tables 1A and 1B). The double dilution method was used with concentrations ranging from 0.06 to 31.3 j·tg mL^−1 for monohydrazides 1a-9j, and the commercially available positive antifungal control amphotericin B (AmB).

[2] = test system: A. fumigatus NRRL 6113 (S); assay: MIC determination by in vitro antifungal assay; format: cell-based, Aspergillus fumigatus; conditions: for MIC: strain S = A. fumigatus NRRL 6113
Method: as §1, §2, §3

[3] = Aspergillus fumigatus, NRRL5109, read-out: MIC
[4] = Aspergillus fumigatus, NRRL6113, read-out: MIC

Row | Compound | MIC [1] | MIC [2] | MIC (highest activity against strain S) [2] | MIC [1, 3] | MIC [2, 4]
1 | COc1ccc(NNC(=O)c2ccc(F)cn2)cc1 [Compound 3f] | >31.3 μg/mL^−1 | >31.3 μg/mL^−1 | – | – | –
2 | O=C(NNc1ccc(Cl)cc1)c1ccccn1 [Compound 2e] | 7.8 μg/mL^−1 | 15.6 μg/mL^−1 | 15.6 j·tg mL^−1 | – | –
3 | O=C(NNc1cccc(Cl)c1)c1ccccn1 [Compound 2b] | >31.3 μg/mL^−1 | >31.3 μg/mL^−1 | – | – | –
4 | O=C(NNc1ccc(F)cc1F)c1ccccn1 [Compound 2g] | – | – | – | 15.6 µg/mL (≈ 62.6 µM) | 31.3 µg/mL (≈ 126 µM)
5 | O=C(NNc1cccc(F)c1)c1cnccn1 [Compound 9a] | >31.3 μg/mL^−1 | >31.3 μg/mL^−1 | – | – | –
6 | C[C@@H]1[C@H](O)[C@@H](C)/C=C/C=C/C=C/C=C/C=C/C=C/C=C/[C@H](O[C@@H]2O[C@H](C)[C@@H](O)[C@H](N)[C@@H]2O)C[C@@H]2O[C@](O)(C[C@@H](O)C[C@@H](O)[C@H](O)CC[C@@H](O)C[C@@H](O)CC(=O)O[C@H]1C)C[C@H](O)[C@H]2C(=O)O [AmB, amphotericin B, reference compound] | 0.98 μg/mL^−1 | 1.95 μg/mL^−1 | – | – | –
7 | O=C(NNc1ccc(F)cc1)c1ccc(F)cc1F [Compound 1d] | – | – | – | > 31.3 µg/mL | > 31.3 µg/mL
8 | COc1cccc(NNC(=O)c2ccc(F)cn2)c1 [Compound 3c] | >31.3 μg/mL^−1 | >31.3 μg/mL^−1 | – | – | –
9 | COc1ccc(NNC(=O)c2nc(F)ccc2F)cc1 [Compound 8f] | – | – | – | 15.6 µg/mL (≈ 55.9 µM) | 31.3 µg/mL (≈ 112 µM)
10 | O=C(NNc1cccc(F)c1)c1ccccn1 [Compound 2a] | >31.3 μg/mL^−1 | >31.3 μg/mL^−1 | – | – | –
11 | COc1cccc(NNC(=O)c2ccccn2)c1 [Compound 2c] | 3.9 μg/mL^−1 | >31.3 μg/mL^−1 | – | – | –
12 | O=C(NNc1cc(F)cc(F)c1)c1ccccn1 [Compound 2i] | – | – | – | ≤ 0.06 µg/mL | 31.3 µg/mL (≈ 126 µM)
13 | O=C(NNc1cccc(F)c1)c1ccc(F)cc1F [Compound 1a] | >31.3 μg/mL^−1 | >31.3 μg/mL^−1 | – | – | –
14 | O=C(NNc1ccc(Cl)cc1)c1cccc(F)n1 [Compound 5e] | – | – | 15.6 j·tg mL^−1 | – | –
15 | O=C(NNc1ccc(F)cc1)c1ncc(F)cc1F [Compound 7d] | – | – | – | > 31.3 µg/mL | > 31.3 µg/mL
16 | O=C(NNc1cccc(F)c1)c1ccc(F)cn1 [Compound 3a] | >31.3 μg/mL^−1 | >31.3 μg/mL^−1 | – | – | –
17 | O=C(NNc1cccc(Cl)c1)c1cnccn1 [Compound 9b] | – | – | – | > 31.3 µg/mL | > 31.3 µg/mL

Row | Compound | MIC [1] | MIC [2] | MIC (highest activity against strain S) [2] | MIC [1, 3] | MIC [2, 4]
18 | COc1ccc(NNC(=O)c2ccc(F)cc2F)cc1 [Compound 1f] | – | – | – | > 31.3 µg/mL | > 31.3 µg/mL
19 | COc1cccc(NNC(=O)c2cnccn2)c1 [Compound 9c] | – | – | – | 7.8 µg/mL (≈ 31.9 µM) | > 31.3 µg/mL
20 | O=C(NNc1cccc(F)c1)c1ccc(Br)cn1 [Compound 4a] | >31.3 μg/mL^−1 | >31.3 μg/mL^−1 | – | – | –
21 | COc1ccc(NNC(=O)c2ccccn2)cc1 [Compound 2f] | – | – | – | > 31.3 µg/mL | 31.3 µg/mL (≈ 129 µM)
22 | O=C(NNc1ccc(F)cc1F)c1cnccn1 [Compound 9g] | – | – | – | > 31.3 µg/mL | > 31.3 µg/mL
23 | COc1ccc(NNC(=O)c2cnccn2)cc1 [Compound 9f] | – | – | – | 31.3 µg/mL (≈ 128 µM) | 31.3 µg/mL (≈ 128 µM)
24 | COc1cccc(NNC(=O)c2ccc(Br)cn2)c1 [Compound 4c] | – | – | – | 7.8 µg/mL (≈ 24.2 µM) | > 31.3 µg/mL
25 | COc1ccc(NNC(=O)c2ncc(F)cc2F)cc1 [Compound 7f] | – | – | – | 31.3 µg/mL (≈ 112 µM) | 31.3 µg/mL (≈ 112 µM)
26 | O=C(NNc1ccc(F)cc1)c1nc(F)ccc1F [Compound 8d] | – | – | – | 15.6 µg/mL (≈ 58.4 µM) | > 31.3 µg/mL
27 | O=C(NNc1cc(F)ccc1F)c1ccccn1 [Compound 2h] | – | – | – | 15.6 µg/mL (≈ 62.6 µM) | > 31.3 µg/mL
28 | O=C(NNc1cccc(F)c1)c1nc(F)ccc1F [Compound 8a] | >31.3 μg/mL^−1 | >31.3 μg/mL^−1 | – | – | –
29 | O=C(NNc1ccc(F)cc1)c1ccccn1 [Compound 2d] | – | – | 15.6 j·tg mL^−1 | 7.8 µg/mL (≈ 33.7 µM) | 15.6 µg/mL (≈ 67.5 µM)
30 | O=C(NNc1cc(Cl)cc(Cl)c1)c1ccccn1 [Compound 2j] | – | – | – | > 31.3 µg/mL | > 31.3 µg/mL
31 | COc1ccc(NNC(=O)c2cccc(F)n2)cc1 [Compound 5f] | – | – | 15.6 j·tg mL^−1 | > 31.3 µg/mL | 15.6 µg/mL (≈ 59.7 µM)
32 | O=C(NNc1cccc(F)c1)c1ncc(F)cc1F [Compound 7a] | >31.3 μg/mL^−1 | >31.3 μg/mL^−1 | – | – | –
33 | O=C(NNc1ccc(F)cc1)c1cccc(F)n1 [Compound 5d] | – | – | – | 15.6 µg/mL (≈ 62.6 µM) | 15.6 µg/mL (≈ 62.6 µM)
